This note sets out measurements from US20240239861A1, “GLUCAGON-RECEPTOR SELECTIVE POLYPEPTIDES AND METHODS OF USE THEREOF” (i2O Therapeutics, Inc., priority 2016, published 2024).

In one assay the target is human GCGR (Homo sapiens, UniProt P47871). The assay is described as follows: Peptide-receptor mediated cAMP accumulation (LANCE Ultra cAMP) in CHO-K1 cells transfected with human GCGR. It is filed as cell-based. (In general: Changes in cAMP serve as a functional read-out for many G protein-coupled receptors.)
Sequence of human GCGR (P47871 26-477): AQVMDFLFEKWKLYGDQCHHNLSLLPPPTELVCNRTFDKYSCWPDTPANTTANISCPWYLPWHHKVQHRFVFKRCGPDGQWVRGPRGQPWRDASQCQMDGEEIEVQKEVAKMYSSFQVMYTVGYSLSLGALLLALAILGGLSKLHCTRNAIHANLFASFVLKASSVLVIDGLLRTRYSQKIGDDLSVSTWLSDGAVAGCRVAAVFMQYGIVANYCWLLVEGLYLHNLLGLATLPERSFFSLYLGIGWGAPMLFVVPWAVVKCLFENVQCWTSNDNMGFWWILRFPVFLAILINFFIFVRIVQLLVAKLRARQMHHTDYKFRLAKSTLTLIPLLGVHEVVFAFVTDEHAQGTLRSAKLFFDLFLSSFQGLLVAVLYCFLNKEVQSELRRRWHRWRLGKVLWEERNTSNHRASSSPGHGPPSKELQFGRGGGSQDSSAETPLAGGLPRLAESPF
Another assay concerns the target human GLP-1R (Homo sapiens, UniProt P43220). As to the kind of experiment: Peptide-receptor mediated cAMP accumulation (LANCE Ultra cAMP) in CHO-K1 cells transfected with human GLP-1R. The format is cell-based.
The mark [1] stands for this setting: hGLP1 pEC50 (cAMP mean (n = 3): 11 point curve starting at 1 nM, Table 3).

The structures appear in SMILES notation. Where two headings read alike, the source gives them in different places. *1 amine or outer side, *2 acyl side, *3 side chain or, on linkers, in order; H or OH if unused. Where a SMILES comes first, the peptide text is derived from it. Side-chain parts run from the residue outwards. [ ]: non-standard residue; d: D form. The star is where a group is joined. C18 diacid = O=C(O)CCCCCCCCCCCCCCCCC(=O)*; γGlu = O=C(O)[C@H](CCC(=O)[*:2])N[*:1]; AEEA = NCCOCCOCC(=O)O; Aib = CC(C)(N)C(=O)O

Sequence of human GLP-1R (P43220 24-463): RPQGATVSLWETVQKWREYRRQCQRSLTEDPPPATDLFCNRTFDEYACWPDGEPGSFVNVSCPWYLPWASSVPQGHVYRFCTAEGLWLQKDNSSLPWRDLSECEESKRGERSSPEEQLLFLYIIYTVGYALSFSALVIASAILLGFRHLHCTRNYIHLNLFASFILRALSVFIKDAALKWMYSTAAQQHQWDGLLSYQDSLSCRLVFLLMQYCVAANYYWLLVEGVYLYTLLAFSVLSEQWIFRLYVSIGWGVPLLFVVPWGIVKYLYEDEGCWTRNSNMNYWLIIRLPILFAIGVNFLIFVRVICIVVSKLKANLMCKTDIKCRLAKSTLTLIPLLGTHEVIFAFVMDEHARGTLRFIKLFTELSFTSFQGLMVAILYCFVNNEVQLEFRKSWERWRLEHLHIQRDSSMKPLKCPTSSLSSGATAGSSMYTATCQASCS

Turning to `CC(C)C[C@H](NC(=O)[C@H](Cc1ccc(O)cc1)NC(=O)[C@H](CCCCN)NC(=O)[C@H](CO)NC(=O)[C@H](Cc1ccc(O)cc1)NC(=O)[C@H](CC(=O)O)NC(=O)[C@H](CO)NC(=O)[C@@H](NC(=O)[C@H](Cc1ccccc1)NC(=O)[C@@H](NC(=O)CNC(=O)[C@H](CCC(N)=O)NC(=O)[C@H](CO)NC(=O)[C@@H](N)Cc1ccc(O)cc1)[C@@H](C)O)[C@@H](C)O)C(=O)N[C@@H](CC(=O)O)C(=O)N[C@@H](CO)C(=O)N[C@@H](C)C(=O)N[C@@H](CCCNC(=N)N)C(=O)N[C@@H](C)C(=O)N[C@@H](CCC(N)=O)C(=O)N[C@@H](CCC(=O)O)C(=O)N[C@@H](Cc1ccccc1)C(=O)N[C@H](C(=O)N[C@@H](CCCCN)C(=O)N[C@@H](Cc1c[nH]c2ccccc12)C(=O)N[C@@H](CC(C)C)C(=O)N[C@@H](CCC(=O)O)C(=O)N[C@@H](CC(=O)O)C(=O)N[C@@H](CCC(=O)O)C(=O)N1CCC[C@H]1C(=O)N[C@@H](CCCCN)C(=O)N[C@@H](CO)C(=O)N[C@@H](CCCCN)C(=O)N[C@@H](CO)C(=O)N1CCC[C@H]1C(=O)N1CCC[C@H]1C(=O)N1CCC[C@H]1C(=O)N[C@@H](CO)C(=O)O)C(C)C` [Compound A81] (H-YSQGTFTSDYSKYLDSARAQEFVKWLEDEPKSKSPPPS-OH; N-terminus assumed), the EC50 on human GCGR (Table 3) is 0.01 nM; on human GLP-1R (setting [1]) it was over 1 nM.
Take `CC(C)C[C@H](NC(=O)[C@H](Cc1c[nH]c2ccccc12)NC(=O)[C@H](CCCCN)NC(=O)[C@H](CO)NC(=O)[C@H](Cc1c[nH]cn1)NC(=O)[C@H](CC(=O)O)NC(=O)[C@H](CO)NC(=O)[C@@H](NC(=O)[C@H](Cc1ccccc1)NC(=O)[C@@H](NC(=O)CNC(=O)[C@H](Cc1c[nH]cn1)NC(=O)[C@H](CO)NC(=O)[C@@H](N)Cc1ccc(O)cc1)[C@@H](C)O)[C@@H](C)O)C(=O)N[C@@H](CC(=O)O)C(=O)NC(C)(C)C(=O)N[C@@H](CCCCN)C(=O)N[C@@H](CCCNC(=N)N)C(=O)N[C@@H](C)C(=O)N[C@@H](CCC(N)=O)C(=O)N[C@@H](CCC(=O)O)C(=O)N[C@@H](Cc1ccccc1)C(=O)N[C@H](C(=O)NC(C)(C)C(=O)N[C@@H](Cc1c[nH]c2ccccc12)C(=O)N[C@@H](CC(C)C)C(=O)N[C@@H](CCC(=O)O)C(=O)N[C@@H](CC(=O)O)C(=O)N[C@@H](CCC(=O)O)C(=O)N1CCC[C@H]1C(=O)N[C@@H](CO)C(=O)N[C@@H](CO)C(=O)NCC(=O)N[C@@H](C)C(=O)N1CCC[C@H]1C(=O)N1CCC[C@H]1C(=O)N1CCC[C@H]1C(=O)N[C@@H](CO)C(=O)O)C(C)C` [Compound A33] (H-YSHGTFTSDHSKWLD[Aib]KRAQEFV[Aib]WLEDEPSSGAPPPS-OH; N-terminus assumed): the EC50 on human GCGR (Table 3) is 0.0126 nM; on human GLP-1R (setting [1]), over 1 nM.
`CC(C)C[C@H](NC(=O)[C@H](Cc1ccc(O)cc1)NC(=O)[C@H](CCCCN)NC(=O)[C@H](CO)NC(=O)[C@H](Cc1ccc(O)cc1)NC(=O)[C@H](CC(=O)O)NC(=O)[C@H](CO)NC(=O)[C@@H](NC(=O)[C@H](Cc1ccccc1)NC(=O)[C@@H](NC(=O)CNC(=O)[C@H](Cc1c[nH]cn1)NC(=O)[C@H](CO)NC(=O)[C@@H](N)Cc1ccc(O)cc1)[C@@H](C)O)[C@@H](C)O)C(=O)N[C@@H](CC(=O)O)C(=O)N[C@@H](CO)C(=O)N[C@@H](C)C(=O)N[C@@H](CCCNC(=N)N)C(=O)N[C@@H](C)C(=O)N[C@@H](CCC(N)=O)C(=O)N[C@@H](CCC(=O)O)C(=O)N[C@@H](Cc1ccccc1)C(=O)N[C@H](C(=O)N[C@@H](CCCCN)C(=O)N[C@@H](Cc1c[nH]c2ccccc12)C(=O)N[C@@H](CC(C)C)C(=O)N[C@@H](CCC(=O)O)C(=O)N[C@@H](CC(=O)O)C(=O)N[C@@H](CCC(=O)O)C(=O)N1CCC[C@H]1C(=O)N[C@@H](CCCCN)C(=O)N[C@@H](CO)C(=O)N[C@@H](CCCCN)C(=O)N[C@@H](CCC(=O)O)C(=O)N1CCC[C@H]1C(=O)N1CCC[C@H]1C(=O)N1CCC[C@H]1C(=O)N[C@@H](CO)C(=O)O)C(C)C` [Compound A69] (H-YSHGTFTSDYSKYLDSARAQEFVKWLEDEPKSKEPPPS-OH; N-terminus assumed): the EC50 at human GCGR (Table 3) was 0.00158 nM; at human GLP-1R (setting [1]) it was over 1 nM.
`CC(C)C[C@H](NC(=O)[C@H](Cc1ccc(O)cc1)NC(=O)[C@H](CCCCN)NC(=O)[C@H](CO)NC(=O)[C@H](Cc1ccc(O)cc1)NC(=O)[C@H](CC(=O)O)NC(=O)[C@H](CO)NC(=O)[C@@H](NC(=O)[C@H](Cc1ccccc1)NC(=O)[C@@H](NC(=O)CNC(=O)[C@H](Cc1c[nH]cn1)NC(=O)[C@H](CO)NC(=O)[C@@H](N)Cc1ccc(O)cc1)[C@@H](C)O)[C@@H](C)O)C(=O)N[C@@H](CC(=O)O)C(=O)NC(C)(C)C(=O)N[C@@H](CCCCN)C(=O)N[C@@H](CCCNC(=N)N)C(=O)N[C@@H](C)C(=O)N[C@@H](CCC(N)=O)C(=O)N[C@@H](CCC(=O)O)C(=O)N[C@@H](Cc1ccccc1)C(=O)N[C@H](C(=O)NC(C)(C)C(=O)N[C@@H](Cc1c[nH]c2ccccc12)C(=O)N[C@@H](CC(C)C)C(=O)N[C@@H](CCC(=O)O)C(=O)N[C@@H](CC(=O)O)C(=O)N[C@@H](CCC(=O)O)C(=O)N1CCC[C@H]1C(=O)N[C@@H](CO)C(=O)N[C@@H](CO)C(=O)NCC(=O)N[C@@H](CCC(=O)O)C(=O)N1CCC[C@H]1C(=O)N1CCC[C@H]1C(=O)N1CCC[C@H]1C(=O)N[C@@H](CO)C(=O)O)C(C)C` [Compound A21] (H-YSHGTFTSDYSKYLD[Aib]KRAQEFV[Aib]WLEDEPSSGEPPPS-OH; N-terminus assumed): the EC50 was 0.00794 nM on human GCGR (Table 3) and over 1 nM on human GLP-1R (setting [1]).
With `CC(C)C[C@H](NC(=O)[C@H](Cc1ccc(O)cc1)NC(=O)[C@H](CCCCN)NC(=O)[C@H](CO)NC(=O)[C@H](Cc1ccc(O)cc1)NC(=O)[C@H](CC(=O)O)NC(=O)[C@H](CO)NC(=O)[C@@H](NC(=O)[C@H](Cc1ccccc1)NC(=O)[C@@H](NC(=O)CNC(=O)[C@H](CCC(N)=O)NC(=O)[C@H](CO)NC(=O)[C@@H](N)Cc1c[nH]c2ccccc12)[C@@H](C)O)[C@@H](C)O)C(=O)N[C@@H](CC(=O)O)C(=O)N[C@@H](CCCCNC(=O)COCCOCCNC(=O)COCCOCCNC(=O)CC[C@H](NC(=O)CCCCCCCCCCCCCCCCC(=O)O)C(=O)O)C(=O)N[C@@H](CCCCN)C(=O)N[C@@H](CCCNC(=N)N)C(=O)N[C@@H](C)C(=O)N[C@@H](CCC(N)=O)C(=O)N[C@@H](CCC(=O)O)C(=O)N[C@@H](Cc1ccccc1)C(=O)N[C@H](C(=O)NC(C)(C)C(=O)N[C@@H](Cc1c[nH]c2ccccc12)C(=O)N[C@@H](CC(C)C)C(=O)N[C@@H](CCC(=O)O)C(=O)N[C@@H](CC(=O)O)C(=O)N[C@@H](CCC(=O)O)C(=O)N1CCC[C@H]1C(=O)N[C@@H](CO)C(=O)N[C@@H](CO)C(=O)NCC(=O)N[C@@H](C)C(=O)N1CCC[C@H]1C(=O)N1CCC[C@H]1C(=O)N1CCC[C@H]1C(=O)N[C@@H](CO)C(=O)O)C(C)C` [Compound B23] (H-WSQGTFTSDYSKYLDK([AEEA-AEEA-γGlu-C18 diacid])KRAQEFV[Aib]WLEDEPSSGAPPPS-OH), the EC50 on human GCGR (read-out: GluR pEC50 (converted)) was 0.316 nM; at human GLP-1R (Table 7, GLP-1R, read-out: GLP-1R pEC50 (converted)) it was 316 nM.
